Results reported in US6075054A, “Ortho-substituted benzoylguanidines, process for their preparation, their use as a medicament or diagnostic, and medicament comprising them” (Hoechst Aktiengesellschaft, priority 1997, dated 2000).
Counter-ions that a name gives are not always drawn.

Molecular target: T1, Na^+ /H^+ exchanger of rabbit erythrocytes (Oryctolagus cuniculus, UniProt P23791)
T1 construct: endogenous in cells; host or cells: erythrocytes in whole blood of White New Zealand rabbits (Ivanovas) fed 2% cholesterol
T1 sequence (P23791 whole entry): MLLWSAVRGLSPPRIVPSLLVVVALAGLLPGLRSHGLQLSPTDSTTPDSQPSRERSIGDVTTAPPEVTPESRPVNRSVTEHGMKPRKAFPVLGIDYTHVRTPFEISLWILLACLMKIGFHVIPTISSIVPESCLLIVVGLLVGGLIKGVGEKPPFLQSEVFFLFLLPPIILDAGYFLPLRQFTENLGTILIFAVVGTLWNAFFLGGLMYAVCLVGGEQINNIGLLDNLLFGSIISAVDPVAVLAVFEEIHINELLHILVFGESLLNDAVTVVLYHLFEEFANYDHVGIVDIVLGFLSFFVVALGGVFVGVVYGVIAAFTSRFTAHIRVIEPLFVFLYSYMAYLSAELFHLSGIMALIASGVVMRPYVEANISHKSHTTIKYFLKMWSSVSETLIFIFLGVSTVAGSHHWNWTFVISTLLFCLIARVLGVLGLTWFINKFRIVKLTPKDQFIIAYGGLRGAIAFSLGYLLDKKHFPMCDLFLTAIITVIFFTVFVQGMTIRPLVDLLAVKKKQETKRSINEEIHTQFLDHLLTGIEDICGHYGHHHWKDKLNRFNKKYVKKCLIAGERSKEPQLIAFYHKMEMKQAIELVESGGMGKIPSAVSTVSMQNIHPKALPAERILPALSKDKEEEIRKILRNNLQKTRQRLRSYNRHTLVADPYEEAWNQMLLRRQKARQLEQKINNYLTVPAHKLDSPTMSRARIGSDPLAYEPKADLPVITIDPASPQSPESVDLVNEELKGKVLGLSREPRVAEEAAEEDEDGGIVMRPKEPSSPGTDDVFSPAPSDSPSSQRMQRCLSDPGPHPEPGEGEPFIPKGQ
Test: Inhibition of the Na^+ /H^+ exchanger of rabbit erythrocytes (amiloride-sensitive sodium influx, flame photometry)
Assay type: cell-based, rabbit (White New Zealand)
Settings: erythrocytes of rabbits on 2% cholesterol diet; hyperosmolar salt-sucrose medium, pH 7.4, 37° C.
From the text: Inhibition of the Na^+ /H^+ exchanger of rabbit erythrocytes White New Zealand rabbits (Ivanovas) received a standard diet with 2% cholesterol for six weeks in order to activate the Na^+ /H^+ exchange and thus to be able to determine the Na^+ -influx into the erythrocytes via Na^+ /H^+ exchange by flame photometry. The blood was taken from the auricular arteries and rendered incoagulable by 25 IU of potassium-heparin. A part of each sample was used for the duplicate determination of the hematocrits by centrifugation. Aliquots of 100 μl in each case were used for the measurement of the Na^+ starting content of the erythrocytes.
In order to determine the amiloride-sensitive sodium influx, 100 μl of each blood sample were incubated in 5 ml in each case of a hyperosmolar salt-sucrose medium (mmol/l: 140 NaCl, 3 KCl, 150 sucrose, 0.1 ouabain, 20 tris-hydroxymethylaminomethane) at pH 7.4 and 37° C. The erythrocytes were then washed three times with ice-cold MgCl2 -ouabain solution (mmol/l: 112 MgCl2, 0.1 ouabain) and hemolyzed in 2.0 ml of distilled water. The intracellular sodium content was determined by flame photometry.
The Na^+ net influx was calculated from the difference between sodium starting values and the sodium content of the erythrocytes after incubation. […]

An IC50 of 1.2 nM was found for `Cc1cc(C(C)CO)c(C(F)(F)F)cc1C(=O)N=C(N)N` (racemic) [Example 1, hydrochloride] in this work.
